Results from patent publication US6969731B1, “Protease inhibitors that overcome drug resistance” (The University of Illinois, Board of Trustees, priority 1999, dated 2005).
Where “and” joins values, the source holds several entries; their conditions need not be identical. Equal values may be shown once.

Key:
Assay type in all cases: biochemical
wild type HIV-1 protease = target: T1, wild type HIV-1 protease (Human immunodeficiency virus type 1 group M subtype B, UniProt P04585); test: Ki determination, wild-type HIV-1 protease; settings: W.T. HIV-1 protease; with standard error
T1 construct: The active HIVPr is a homodimer of 99-residue monomers; made in house; host or cells: E. coli
Description: (§1) The wild-type HIV-1 Pr was produced as recombinant enzyme in E. coli as described by Ido et al. ( 1991) J. Biol. Chem. 266:24359-24366.

[1] = target: T2, HIV-1 protease resistant mutant V82A (Human immunodeficiency virus type 1 group M subtype B, UniProt P04585, V570A); settings: V82A mutant; with standard error
T2 construct: The active HIVPr is a homodimer of 99-residue monomers; made in house

[2] = system: HIV-1 protease resistant mutant V82A; settings: Ki,mut V82A / Ki wild-type
[3] = target: T3, HIV-1 protease resistant mutant I84V (Human immunodeficiency virus type 1 group M subtype B, UniProt P04585, I572V); settings: I84V mutant; with standard error
T3 construct: The active HIVPr is a homodimer of 99-residue monomers; made in house

[4] = system: HIV-1 protease resistant mutant I84V; settings: Ki,mut I84V / Ki wild-type
[5] = target: T4, HIV-1 protease resistant mutant I15V (Human immunodeficiency virus type 1 group M subtype B, UniProt P04585, I503V); settings: I15V mutant; with standard error
T4 construct: The active HIVPr is a homodimer of 99-residue monomers; made in house

[6] = system: HIV-1 protease resistant mutant I15V; settings: Ki,mut I15V / Ki wild-type
[7] = target: T5, HIV-1 protease resistant mutant K20R (Human immunodeficiency virus type 1 group M subtype B, UniProt P04585, K508R); settings: K20R mutant; with standard error
T5 construct: The active HIVPr is a homodimer of 99-residue monomers; made in house

[8] = system: HIV-1 protease resistant mutant K20R; settings: Ki,mut K20R / Ki wild-type
[9] = target: T6, HIV-1 protease resistant mutant M46I (Human immunodeficiency virus type 1 group M subtype B, UniProt P04585, M534I); settings: M46I mutant; with standard error
T6 construct: The active HIVPr is a homodimer of 99-residue monomers; made in house

[10] = system: HIV-1 protease resistant mutant M46I; settings: Ki,mut M46I / Ki wild-type
[11] = target: T7, HIV-1 protease resistant mutant L10I (Human immunodeficiency virus type 1 group M subtype B, UniProt P04585, L498I); settings: L10I mutant; with standard error
T7 construct: The active HIVPr is a homodimer of 99-residue monomers; made in house

[12] = system: HIV-1 protease resistant mutant L10I; settings: Ki,mut L10I / Ki wild-type
[13] = target: T8, HIV-1 protease resistant mutant G48V (Human immunodeficiency virus type 1 group M subtype B, UniProt P04585, G536V); settings: G48V mutant; with standard error
T8 construct: The active HIVPr is a homodimer of 99-residue monomers; made in house

[14] = system: HIV-1 protease resistant mutant G48V; settings: Ki,mut G48V / Ki wild-type
[15] = target: T9, HIV-1 protease resistant mutant L90M (Human immunodeficiency virus type 1 group M subtype B, UniProt P04585, L578M); settings: L90M mutant; with standard error
T9 construct: The active HIVPr is a homodimer of 99-residue monomers; made in house

[16] = system: HIV-1 protease resistant mutant L90M; settings: Ki,mut L90M / Ki wild-type
[17] = target: T10, HIV-1 protease resistant mutant I64V (Human immunodeficiency virus type 1 group M subtype B, UniProt P04585, I552V); settings: I64V mutant; with standard error
T10 construct: The active HIVPr is a homodimer of 99-residue monomers; made in house

[18] = system: HIV-1 protease resistant mutant I64V; settings: Ki,mut I64V / Ki wild-type
[19] = target: T11, HIV-1 protease resistant mutant I93L (Human immunodeficiency virus type 1 group M subtype B, UniProt P04585, I581L); test: Ki determination, HIV-1 protease mutant I93L
T11 construct: The active HIVPr is a homodimer of 99-residue monomers; made in house
Description: as §1

## CC(C)CN(CC(O)C(Cc1ccccc1)NC(=O)C(Cc1ccccc1)CC(O)C(Cc1ccccc1)NC(=O)OC1CCCO1)S(=O)(=O)c1cccc(O)c1 [UIC-98-056, (1′S,2R,2′R,3S,5′S)-3-[N-[2′-Benzyl-5′-[N-(2-tetrahydrofuranyloxycarbonyl]amino-4′-hydroxy-6′-phenyl-1′-oxo]hexyl]amino-2-hydroxy-1-[N-isobutylamino-N′[3-hydroxybenzene)sulfonamido]]-4-[phenylbutane]
Wild type HIV-1 protease
  Ki: 6.2 ± 0.8 nM
[1]
  Ki: 6.23 ± 1.2 nM
[2]
  fold of Ki increase from that of the wild-type: 1.0 fold
[3]
  Ki: 55.3 ± 0.46 nM
[4]
  fold of Ki increase from that of the wild-type: 9 fold and 8.9 fold
[5]
  Ki: 1.22 ± 0.14 nM
[6]
  fold of Ki increase from that of the wild-type: 0.2 fold
[7]
  Ki: 2.9 ± 0.74 nM
[8]
  fold of Ki increase from that of the wild-type: 0.5 fold
[9]
  Ki: 3.16 ± 0.81 nM
[10]
  fold of Ki increase from that of the wild-type: 0.5 fold
[11]
  Ki: 1.03 ± 0.25 nM
[12]
  fold of Ki increase from that of the wild-type: 0.2 fold
[13]
  Ki: 8.7 ± 1.4 nM
[14]
  fold of Ki increase from that of the wild-type: 1.4 fold
[15]
  Ki: 2.1 ± 0.5 nM
[16]
  fold of Ki increase from that of the wild-type: 0.3 fold
[17]
  Ki: 6.24 ± 1.52 nM
[18]
  fold of Ki increase from that of the wild-type: 1.0 fold
[19]; I93L mutant, with standard error
  Ki: 3.05 ± 0.64 nM
[19]; Ki,mut I93L / Ki wild-type
  fold of Ki increase from that of the wild-type: 0.5 fold
